# How the values were obtained:
# Rice = assay: Transplanted rice safety evaluation; type: in vivo, rice (japonica rice/Indica rice); settings: 60 g/ha; transplanted 3 leaf stage rice, 21 days after treatment
# From the text: (§1) The activity level criteria for harmful plant damage (i.e., growth control rate) are as follows: • Level 5: growth control rate is above 85%; • Level 4: growth control rate is greater than or equal to 60% and less than 85%; • Level 3: growth control rate is greater than or equal to 40% and less than 60%; • Level 2: growth control rate is greater than or equal to 20% and less than 40%; • Level 1: growth control rate is greater than or equal to 5% and less than 20%; • Level 0: growth control rate is less than 5%.
# In addition, the rice field soil that loaded into the 1/1,000,000 ha pot was leveled to keep water storage at 3-4 cm depth. The 3 leaf stage rice (japonica rice/Indica rice) was transplanted at 3 cm of transplanting depth the next day. The compound of the present invention was treated by the same way after 5 days of transplantation.
# (§2) The fertility condition of Echinochloa crusgali, Scirpus juncoides, Bidens tripartita, Leptochloa chinensis, Sagittaria trifolia and Monochoria vaginalis 14 days after the treatment of the compound of the invention and the fertility condition of rice 21 days after the treatment of the compound of the invention respectively with the naked eye. Evaluate the weed control effect with 0-5 activity standard level. Many compounds show excellent activity and selectivity.
# Leptochloa chinensis [1] = assay: Comparison experiment (post-emergence) against racemate / S configuration; type: in vivo
# From the text: (§3) The above growth control rates are fresh weight control rates.
# (§4) Experiment on weeding effect in post-emergence stage: monocotyledonous and dicotyledonous weed seeds (Descurainia sophia, Capsella bursa-pastoris, Galium aparine, Stellaria media, Lithospermum arvense, Rorippa indica, Alopecurus aequalis, Beckmannia syzigachne, Sclerochloa dura, Phleum paniculatum, Bromus japonicus, Aegilops tauschii, Phalaris arundinacea, Amaranthus retroflexus, Chenopodiaceae, Commelina communis, Sonchus arvensis, convolvulus arvensis, Cirsium setosum, Solanum nigrum, Acalypha australis, Digitaria sanguinalis, Echinochloa crusgalli, Setaria viridis, Setaria glauca, Leptochloa chinensis, Monochoria vaginalis, Sagittaria trifolia, Scirpus juncoides, Cyperus rotundus, Cyperus iria, Cyperus difformis, Fimbristylis, Portulaca oleracea, Xanthium sibiricum, Pharbitis nil) and major crop seeds (wheat, corn, rice, soybean, cotton, oilseed rape, millet, sorghum, potato, sesame, ricinus) were placed in plastic pots filled with soil, then covered with 0.5-2 cm of soil, allowed to grow in a good greenhouse environment. […] The tested compounds of the present invention were respectively dissolved in acetone, then added with Tween 80 and 1.5 liter/ha of emulsifiable concentrate of methyl oleate as synergist, diluted with a certain amount of water to obtain a solution with a certain concentration, and sprayed with a spray tower onto the plants. […]
# (§5) If there is no clear marker, the post-seedling test conditions are the same as above, and the experimental results are shown in Tables 4-7.
# Green Setaria viridis = assay: as above; type: in vivo; settings: 3-4 weeks after sowing, 4-5 leaf-stage of weed
# From the text: as §3, §4, §5
# Abutilon theophrasti [2] = assay: as above; type: in vivo; settings: 30 g/ha; 3-4 weeks after sowing, 4-5 leaf-stage of weed, 25DAA
# From the text: as §3, §4, §5
# Digitaria sanguinalis [3] = assay: as above; type: in vivo; settings: 30 g/ha; 3-4 weeks after sowing, 4-5 leaf-stage of weed, 25DAA
# Leptochloa chinensis [4] = assay: Weed control effect evaluation in rice field; type: in vivo; settings: 60 g/ha; rice field pot, 14 days after treatment
# From the text: as §1
# (§6) Rice field soil was loaded into a 1/1,000,000 ha pot. The seeds of Echinochloa crusgali, Scirpus juncoides, Bidens tripartita, Sagittaria trifolia, Monochoria vaginalis and Leptochloa chinensis were sowed and gently covered with soil, then left to stand still in greenhouse in the state of 0.5-1 cm of water storage. The tuber of Sagittaria trifolia was planted in the next day or 2 days later. It was kept at 3-4 cm of water storage thereafter. The weeds were treated by dripping the WP or SC water diluents prepared according to the common preparation method of the compounds of the present invention with pipette homogeneously to achieve specified effective amount when Echinochloa crusgali, Scirpus juncoides, Bidens tripartita, Monochoria vaginalis and Leptochloa chinensis reached 0.5 leaf stage and Sagittaria trifolia reached the time point of primary leaf stage.
# as §2
# Echinochloa crusgali [5] = assay: Weed control effect evaluation in rice field; type: in vivo; settings: 60 g/ha; rice field pot, 14 days after treatment; ALS-inhibitor resistant weed from Heilongjiang
# From the text: as §1, §6, §2
# Monochoria vaginalis = assay: Weed control effect evaluation in rice field; type: in vivo; settings: 60 g/ha; rice field pot, 14 days after treatment; ALS-inhibitor resistant weed from Heilongjiang
# From the text: as §1, §6, §2
# Sagittaria trifolia = assay: Weed control effect evaluation in rice field; type: in vivo; settings: 60 g/ha; rice field pot, 14 days after treatment; ALS-inhibitor resistant weed from Heilongjiang
# From the text: as §1, §6, §2
# Digitaria sanguinalis [6] = assay: Weeding effect in post-emergence stage; type: in vivo; settings: 250 g/ha; 2 leaf stage; 15 days after application; fresh weight control rate
# Summary of the method: (§7)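 Two-leaf-stage pot plants, spray-tower application at 500/250/125/60/30/15 g/ha with methyl oleate EC synergist; fresh weight control level (0–5) read at 15 days post-treatment, three replicates averaged.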
# Echinochloa crusgali [7] = assay: Weeding effect in post-emergence stage; type: in vivo; settings: 250 g/ha; 2 leaf stage; 15 days after application; fresh weight control rate
# Summary of the method: as §7
# Setaria viridis = assay: Weeding effect in post-emergence stage; type: in vivo; settings: 250 g/ha; 2 leaf stage; 15 days after application; fresh weight control rate
# Summary of the method: as §7
# Abutilon theophrasti [8] = assay: Weeding effect in post-emergence stage; type: in vivo; settings: 250 g/ha; 2 leaf stage; 15 days after application; fresh weight control rate
# Summary of the method: as §7
# Amaranthus retroflexus = assay: Weeding effect in post-emergence stage; type: in vivo; settings: 250 g/ha; 2 leaf stage; 15 days after application; fresh weight control rate
# Summary of the method: as §7
# Rice(Longyang 16) = assay: Comparison experiment (post-emergence), crop safety on direct seeding rice; type: in vivo
# From the text: as §3
# Experiment on weeding effect in post-emergence stage: monocotyledonous and dicotyledonous weed seeds (Descurainia sophia, Capsella bursa-pastoris, Galium aparine, Stellaria media, Lithospermum arvense, Rorippa indica, Alopecurus aequalis, Beckmannia syzigachne, Sclerochloa dura, Phleum paniculatum, Bromus japonicus, Aegilops tauschii, Phalaris arundinacea, Amaranthus retroflexus, Chenopodiaceae, Commelina communis, Sonchus arvensis, convolvulus arvensis, Cirsium setosum, Solanum nigrum, Acalypha australis, Digitaria sanguinalis, Echinochloa crusgalli, Setaria viridis, Setaria glauca, Leptochloa chinensis, Monochoria vaginalis, Sagittaria trifolia, Scirpus juncoides, Cyperus rotundus, Cyperus iria, Cyperus difformis, Fimbristylis, Portulaca oleracea, Xanthium sibiricum, Pharbitis nil) and major crop seeds (wheat, corn, rice, soybean, cotton, oilseed rape, millet, sorghum, potato, sesame, ricinus) were placed in plastic pots filled with soil, then covered with 0.5-2 cm of soil, allowed to grow in a good greenhouse environment. After 2 weeks of sowing, the test plants were treated in the 2 leaf stage. The tested compounds of the present invention were respectively dissolved in acetone, then added with Tween 80 and 1.5 liter/ha of emulsifiable concentrate of methyl oleate as synergist, diluted with a certain amount of water to obtain a solution with a certain concentration, and sprayed with a spray tower onto the plants. After the application, the plants were cultured for 15 days in the greenhouse, and then the experimental results of the weeding were counted. The doses of the used compounds were 500, 250, 125, 60, 30, 15 g/ha, and the averages were obtained by repeating for three times.
# as §5
# Longyang 16 is an important cultivated variety representative of long-grain fragrant rice in northeast China. Long-grain fragrant rice is sensitive to herbicides and prone to drug damage, especially HPPD herbicides such as mesotrione and benzobicylon. […] It was not consistent with the well-known structure-activity relationship that aryloxyphenoxypropionic acid herbicides and phenoxypropionic acid herbicides in effective form have high activity to weeds and heavy damage to crops, and in ineffective form have almost no activity.
structure (smiles),measurement,setting,value
CCC[S@@+]([O-])c1c(C(F)(F)F)ccc(C(=O)Nc2nnc(C)o2)c1F [Compound 3],"Herbicidal effects of compounds, Rice, 0-5 activity standard level",Rice,0 (Level 0: growth control rate is less than 5%)
same,"Results of comparison experiment, Leptochloa chinensis (60 g/ha)","Leptochloa chinensis [1]; 60 g/ha, 3-4 weeks after sowing, 4-5 leaf-stage of weed, 25DAA",85%
same,"Results of comparison experiment, Leptochloa chinensis (125 g/ha)","Leptochloa chinensis [1]; 125 g/ha, 3-4 weeks after sowing, 4-5 leaf-stage of weed, 25 DAA (Table 5)",100%
same,"activity against key weeds such as Leptochloa chinensis, in words",Leptochloa chinensis [1]; summary of Table 5,better activity
same,"Results of comparison experiment, Green Setaria viridis (30 g/ha)","Green Setaria viridis; 30 g/ha, 25 DAA (Table 5)",75%
same,"Results of comparison experiment, Green Setaria viridis (60 g/ha)","Green Setaria viridis; 60 g/ha, 25DAA",100%
same,"Results of comparison experiment, Abutilon theophrasti (30 g/ha)",Abutilon theophrasti [2],100%
same,"Results of comparison experiment, Digitaria sanguinalis (30 g/ha)",Digitaria sanguinalis [3],100%
same,"Herbicidal effects of compounds, Leptochloa chinensis, 0-5 activity standard level",Leptochloa chinensis [4],5 (Level 5: growth control rate is above 85%)
same,"Herbicidal effects of compounds, Echinochloa crusgali, 0-5 activity standard level",Echinochloa crusgali [5],5 (Level 5: growth control rate is above 85%)
same,"Herbicidal effects of compounds, Monochoria vaginalis, 0-5 activity standard level",Monochoria vaginalis,5 (Level 5: growth control rate is above 85%)
same,"Herbicidal effects of compounds, Sagittaria trifolia, 0-5 activity standard level",Sagittaria trifolia,5 (Level 5: growth control rate is above 85%)
same,"weeding effect in post-emergence stage, activity level (growth control rate), Digitaria sanguinalis",Digitaria sanguinalis [6],5 (Level 5: growth control rate is above 85%)
same,"weeding effect in post-emergence stage, activity level (growth control rate), Echinochloa crusgali",Echinochloa crusgali [7],5 (Level 5: growth control rate is above 85%)
same,"weeding effect in post-emergence stage, activity level (growth control rate), Setaria viridis",Setaria viridis,5 (Level 5: growth control rate is above 85%)
same,"weeding effect in post-emergence stage, activity level (growth control rate), Abutilon theophrasti",Abutilon theophrasti [8],5 (Level 5: growth control rate is above 85%)
same,"weeding effect in post-emergence stage, activity level (growth control rate), Amaranthus retroflexus",Amaranthus retroflexus,5 (Level 5: growth control rate is above 85%)
same,"Results of comparison experiment, Rice(Longyang 16) (250 g/ha)","Rice(Longyang 16); 250 g/ha, 1.5-2 leaf-stage of direct seeding rice variety Longyang 16, 25 DAA",0%
same,"Results of comparison experiment, Rice(Longyang 16) (500 g/ha)","Rice(Longyang 16); 500 g/ha, 1.5-2 leaf-stage of direct seeding rice variety Longyang 16, 25 DAA",0%
same,"safety to rice (Longyang 16), in words",Rice(Longyang 16); summary of Table 5,higher safety

# Source: patent publication US12643871B2, “Aryl formamide compound containing chiral sulfur oxide or salt thereof, preparation method, herbicidal composition and use thereof” (Qingdao Kingagroot Chemical Compound Co., Ltd., priority 2019, dated 2026)
